Values of other authors, collected in EP0435915B1, “COMPOSITIONS FOR THE TREATMENT OF LEISHMANIASIS” (priority 1988, dated 1990).

Tested on: leishmaniasis lesions
Conditions: reported by GB-A-2117237; result in words

For `NC[C@@H]1O[C@H](O[C@H]2[C@@H](O)[C@H](O[C@@H]3[C@@H](O)[C@H](N)C[C@H](N)[C@H]3O[C@H]3O[C@H](CO)[C@@H](O)[C@H](O)[C@H]3N)O[C@@H]2CO)[C@H](N)[C@@H](O)[C@@H]1O` [paromomycin, 0-2,6-diamino-2,6-dideoxy-β-L-idopyranosyl-(1→3)-0-β-D-ribofuranosyl-(1→5)-0-[2-amino-2-deoxy-α-D-glucopyranosyl-(1→4)]-2-deoxystreptamine], the “effect when applied topically to leishmaniasis lesions” value is listed as “ineffective”.
